Measurements: article PMC10728897, “High-Throughput Engineering of Nonribosomal Extension Modules” (ACS Chemical Biology, 2023)

What was measured:
TycB2 A-T bidomain = biological target: T1, TycB2 A-T bidomain (Brevibacillus parabrevis, UniProt O30408, M1767A/M1802I, form not given); experiment: yeast surface display loading assay, click biotinylation, flow cytometry; type: cell-based; conditions: 0.5 mM pPhe with 0.5 mM L-Phe as competitor, 0.1 mM ATP, pH 7.4, 25 C; covalent loading on ppant of T domain
T1 construct: gene tycB; ppant installed by Sfp

TycC6 C-A-T tridomain = biological target: T2, TycC6 C-A-T tridomain (Brevibacillus parabrevis, UniProt O30409); experiment: as above; type: cell-based; conditions: 20 and 50 mM pGly, 0.1 mM ATP, 1 mM MgCl2, pH 7.4, 25 C; covalent loading on ppant of T domain; modest efficiency
T2 construct: gene tycC; ppant installed by Sfp
T2 sequence (O30409 5200-6255 limits assumed): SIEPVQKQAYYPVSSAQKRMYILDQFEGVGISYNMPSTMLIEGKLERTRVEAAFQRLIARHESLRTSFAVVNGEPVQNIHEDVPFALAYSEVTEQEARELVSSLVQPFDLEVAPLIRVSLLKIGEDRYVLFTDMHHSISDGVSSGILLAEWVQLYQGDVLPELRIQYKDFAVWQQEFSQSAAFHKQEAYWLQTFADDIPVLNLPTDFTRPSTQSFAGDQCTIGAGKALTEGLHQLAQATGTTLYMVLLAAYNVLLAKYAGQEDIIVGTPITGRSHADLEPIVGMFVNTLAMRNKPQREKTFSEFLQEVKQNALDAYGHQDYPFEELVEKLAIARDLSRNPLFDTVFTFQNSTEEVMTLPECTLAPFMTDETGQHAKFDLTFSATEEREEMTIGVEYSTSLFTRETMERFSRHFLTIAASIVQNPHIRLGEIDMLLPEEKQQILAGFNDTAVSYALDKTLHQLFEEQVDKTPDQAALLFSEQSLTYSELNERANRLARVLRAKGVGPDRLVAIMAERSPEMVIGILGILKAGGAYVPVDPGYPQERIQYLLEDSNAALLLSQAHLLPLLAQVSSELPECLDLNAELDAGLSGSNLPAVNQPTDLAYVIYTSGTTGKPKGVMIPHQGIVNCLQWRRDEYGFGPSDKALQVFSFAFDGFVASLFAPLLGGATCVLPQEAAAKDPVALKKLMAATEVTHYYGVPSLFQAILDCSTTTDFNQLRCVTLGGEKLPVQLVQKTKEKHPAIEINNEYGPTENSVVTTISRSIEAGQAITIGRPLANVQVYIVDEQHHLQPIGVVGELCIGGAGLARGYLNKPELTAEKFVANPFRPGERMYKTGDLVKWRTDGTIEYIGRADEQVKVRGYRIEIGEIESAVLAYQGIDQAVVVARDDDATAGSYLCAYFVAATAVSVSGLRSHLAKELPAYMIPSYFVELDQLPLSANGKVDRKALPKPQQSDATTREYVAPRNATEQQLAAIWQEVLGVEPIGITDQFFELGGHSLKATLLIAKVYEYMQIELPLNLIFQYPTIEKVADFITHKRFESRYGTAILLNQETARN

T1 sequence (O30408 1530-2090 M1767A/M1802I, form open): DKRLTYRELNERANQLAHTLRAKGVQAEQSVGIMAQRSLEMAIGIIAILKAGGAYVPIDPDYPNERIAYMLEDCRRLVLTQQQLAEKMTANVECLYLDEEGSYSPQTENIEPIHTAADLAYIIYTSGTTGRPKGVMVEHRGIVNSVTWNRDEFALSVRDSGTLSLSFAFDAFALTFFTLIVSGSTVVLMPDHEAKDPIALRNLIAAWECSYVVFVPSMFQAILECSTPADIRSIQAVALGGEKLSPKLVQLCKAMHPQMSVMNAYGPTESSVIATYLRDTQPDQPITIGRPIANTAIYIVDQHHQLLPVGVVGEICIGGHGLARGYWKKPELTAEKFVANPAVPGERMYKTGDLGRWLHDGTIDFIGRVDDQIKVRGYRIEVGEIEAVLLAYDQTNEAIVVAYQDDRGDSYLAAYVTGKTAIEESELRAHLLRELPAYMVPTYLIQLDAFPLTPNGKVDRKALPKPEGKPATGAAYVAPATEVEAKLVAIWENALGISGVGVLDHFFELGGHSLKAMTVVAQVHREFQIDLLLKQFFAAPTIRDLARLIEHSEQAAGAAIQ

SMILES | yeast surface display loading assay, click biotinylation, flow cytometry (TycB2 A-T bidomain) | yeast surface display loading assay, click biotinylation, flow cytometry (TycC6 C-A-T tridomain)
C#CCOc1ccc(C[C@H](N)C(=O)O)cc1 [pPhe, 4-propargyloxy-L-phenylalanine] | the variant with the M1768A and M1803I mutations was the most active and selective | –
C#CCC(N)C(=O)O (centres unmarked) [pGly, propargyl glycine] | – | the displayed module was found to activate pGly in a concentration-dependent manner
